What was measured:
B-RAFV600E = target: T1, B-RAFV600E (Homo sapiens, UniProt P15056, V600E); assay: B-RAFV600E radiometric assay; format: biochemical; details: read-out: Kinase assay B-Raf
T1 construct: purchased Millipore, USA 14-557
Outline: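 B-RAFV600E was preincubated 45 min at rt with compound in 1% DMSO. MEK-K97M (0.5 μg), 5 μM final cold ATP and [γ-32P]ATP were then added for 2 h at rt. Phosphorylated MEK was captured on P81 paper and scintillation-counted; IC50 came from a sigmoidal dose-response fit.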

mTOR kinase = target: T2, mTOR kinase (Homo sapiens, UniProt P42345); assay: mTOR kinase TR-FRET assay; format: biochemical
T2 construct: purchased Millipore, US
T2 sequence (P42345 1362-2549 limits assumed): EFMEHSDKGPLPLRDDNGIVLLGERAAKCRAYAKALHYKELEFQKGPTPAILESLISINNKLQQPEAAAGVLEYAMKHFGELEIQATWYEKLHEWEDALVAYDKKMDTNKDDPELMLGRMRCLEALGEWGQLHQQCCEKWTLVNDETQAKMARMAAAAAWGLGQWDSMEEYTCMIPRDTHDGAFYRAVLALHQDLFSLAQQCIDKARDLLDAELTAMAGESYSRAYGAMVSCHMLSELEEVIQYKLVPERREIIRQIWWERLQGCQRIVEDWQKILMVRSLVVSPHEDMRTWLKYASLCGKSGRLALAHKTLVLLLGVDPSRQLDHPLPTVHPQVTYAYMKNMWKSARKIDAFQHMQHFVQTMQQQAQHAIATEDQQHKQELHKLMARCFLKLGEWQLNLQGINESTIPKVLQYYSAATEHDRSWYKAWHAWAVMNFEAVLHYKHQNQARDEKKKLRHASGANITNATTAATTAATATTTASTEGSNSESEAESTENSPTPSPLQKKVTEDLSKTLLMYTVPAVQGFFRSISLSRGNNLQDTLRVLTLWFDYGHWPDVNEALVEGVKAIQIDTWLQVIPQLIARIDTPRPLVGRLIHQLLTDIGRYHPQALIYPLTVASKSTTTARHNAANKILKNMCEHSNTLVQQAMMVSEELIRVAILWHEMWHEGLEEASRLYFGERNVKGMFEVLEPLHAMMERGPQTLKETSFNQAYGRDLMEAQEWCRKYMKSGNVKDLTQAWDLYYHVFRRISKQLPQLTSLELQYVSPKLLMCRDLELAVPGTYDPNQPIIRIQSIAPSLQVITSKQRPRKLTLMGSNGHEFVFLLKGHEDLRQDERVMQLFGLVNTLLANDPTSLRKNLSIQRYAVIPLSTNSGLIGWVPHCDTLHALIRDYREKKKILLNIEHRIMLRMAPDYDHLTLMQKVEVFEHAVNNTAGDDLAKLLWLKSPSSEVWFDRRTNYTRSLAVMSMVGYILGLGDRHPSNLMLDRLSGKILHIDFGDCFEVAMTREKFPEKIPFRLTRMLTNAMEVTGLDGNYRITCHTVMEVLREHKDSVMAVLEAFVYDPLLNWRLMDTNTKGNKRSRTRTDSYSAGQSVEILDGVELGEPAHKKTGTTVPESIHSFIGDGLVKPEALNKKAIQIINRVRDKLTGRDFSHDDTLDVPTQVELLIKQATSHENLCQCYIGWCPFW
Outline: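 TR-FRET with ULight-p70 S6K (Thr 389) peptide (50 nM) and 20 μM ATP in 50 mM HEPES pH 7.5, 1 mM EGTA, 3 mM MnCl2; compound pre-incubated with enzyme before substrate addition, reaction at rt, EDTA-stopped. Eu anti-phospho antibody read 665/615 nm; IC50 from sigmoidal dose-response fit.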

pERK in A375 cells = assay: In Cell Western (ICW) assay, pERK in A375 cells; format: cell-based; details: Homo sapiens, A-375, 3 h treatment
Outline: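 RKO or A375 cells were exposed to compounds for 3 h at 37 °C, then fixed and stained in-cell with antibodies to pERK1/2 (T202/Y204), pS6RP or pAKT T308, followed by a Eu-labelled secondary. Time-resolved fluorescence (340/615 nm) was normalized to Hoechst, and IC50 values were fitted sigmoidally against DMSO as 0% inhibition.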

A375 cells = assay: XTT assay for cell viability, A375 cells; format: cell-based; details: Homo sapiens, A-375, 72 h
Outline: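 RKO and A375 cells seeded at 1000-2000/well overnight, then exposed to compound for 72 h at 37° C., 5% CO2. XTT (1 mg/ml)/PMS (25 μM) added for 2-3 h; absorbance at 450 nm. Growth relative to DMSO control (100%); GI50 from sigmoidal dose-response fit.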

pERK in RKO cells = assay: In Cell Western (ICW) assay, pERK in RKO cells; format: cell-based; details: Homo sapiens, 3 h treatment
Experimental: (§1) Cell lines A375, A2058 and RKO obtained from the ATCC as provided above, were grown, and after attaining ˜80% confluency were trypsinized, centrifuged and resuspended in fresh media. The cells were seeded at the specified density (20,000 to 50,000) in a 96-well format black-well clear bottom plate (Corning) and incubated overnight at 37° C. in a 5% CO2 incubator. The next day, compound dilutions of test compounds were prepared in 100% DMSO followed by dilutions in respective media. Treatment of test compounds was performed for 3 h at 37° C. in 5% CO2 incubator. Following 3 h drug treatment, the conditional media was discarded and the cells were washed once with cPBS (PBS containing 0.1% magnesium chloride hexahydrate and 0.1% anhydrous calcium chloride) and fixed with 4% paraformaldehyde in cPBS for 1 h at rt. After fixing, the cells were given three washes using cPBST (cPBS containing 0.1% Triton™ X-100 reagent) and then blocked using blocking solution (5% skimmed milk powder or 5% BSA prepared in cPBST) for 2 h at rt with shaking at 300 rpm. The cells were again washed thrice with cPBST and incubated with primary antibody phospho-p44/42 MAPK(Erk1/2)(Thr202/204) antibody (Cell Signaling, Catalog # 9101L), phospho S6 ribosomal protein (Cell Signaling, Catalog #4858L), phospho AKT (Thr 308) (Cell Signaling, Catalog #9275) or phospho AKT (Ser 473) (Cell Signaling, Catalog #4060L) in specified dilutions (1:500-1:2500), prepared in respective blocking solutions, in a racker overnight at 4° C. The next day, the cells were washed with 1× Delfia® wash buffer (4×1 wash) and incubated with secondary antibody (Delfia®-Eu-N1 labeled anti-rabbit antibody; PerkinElmer, Catalog #AD0105; dilutions: 1:2000 to 1:6000 in Delfia® assay buffer (PerkinElmer, Catalog #1244-111)) for 2 h at rt in the dark at 300 rpm. The cells were then given four washes with 1× Delfia® wash buffer and incubated with Wallac Delfia® Enhancement solution (100 μL; PerkinElmer, Catalog #1244-105) for 20 min at rt in the dark at 300 rpm. The fluorescence emission was then read at 615 nm with an excitation wavelength of 340 nm using a Victor V5 Fluorometer (Perkin Elmer, US). The cells were then washed once with 1×cPBS and incubated with 100 μL of 0.5 mg/mL of Hoechst 33258 dye prepared in cPBS and read at 460 nm with 355 nm excitation, thereby evaluating the correction factor.
(§2) The % inhibition for the test compounds of formula (I) (new chemical entities (NCEs)) was calculated keeping DMSO control as 0% and the IC50 values were determined using sigmoidal dose response curve fit in GraphPad Prism® v5 software.

RKO cells = assay: XTT assay for cell viability, RKO cells; format: cell-based; details: Homo sapiens, 72 h
Experimental: Cell lines (A375 ATCC No. CRL-1619, A2058 ATCC No. CRL-11147 and RKO ATCC No. CRL-2577, American Type Culture Collection (ATCC), Manassas Va.) once attaining ˜80% confluency were trypsinized, centrifuged and resuspended in fresh media. Cells (1000-2000/per well) were seeded in 96-well plate and incubated over-night at 37° C. in a 5% CO2 incubator. Compound dilutions were prepared in 100% DMSO followed by dilutions in the respective media. The cells were treated with NCEs for 72 h at 37° C. in 5% CO2 incubator. After 72 h, freshly prepared XTT (1 mg/ml)/PMS (25 μM) solution was added, incubated for 2 to 3 h at 37° C. and the absorbance was measured at 450 nm using an ELISA plate reader. Keeping DMSO control as 100%, the effect of the compound to inhibit the cell proliferation was calculated and the GI50 values were determined using sigmoidal dose response curve fit in GraphPad Prism® v5 software.

pS6RP in RKO cells = assay: In Cell Western (ICW) assay, pS6RP in RKO cells; format: cell-based; details: Homo sapiens, 3 h treatment
Experimental: as §1, §2

PI3Kα = target: T3, PI3Kα (Homo sapiens, UniProt P42336); assay: PI3 Kinase alpha TR-FRET assay; format: biochemical
T3 construct: made in house; host or cells: SF9 cells
T3 sequence (P42336 whole entry, species assumed): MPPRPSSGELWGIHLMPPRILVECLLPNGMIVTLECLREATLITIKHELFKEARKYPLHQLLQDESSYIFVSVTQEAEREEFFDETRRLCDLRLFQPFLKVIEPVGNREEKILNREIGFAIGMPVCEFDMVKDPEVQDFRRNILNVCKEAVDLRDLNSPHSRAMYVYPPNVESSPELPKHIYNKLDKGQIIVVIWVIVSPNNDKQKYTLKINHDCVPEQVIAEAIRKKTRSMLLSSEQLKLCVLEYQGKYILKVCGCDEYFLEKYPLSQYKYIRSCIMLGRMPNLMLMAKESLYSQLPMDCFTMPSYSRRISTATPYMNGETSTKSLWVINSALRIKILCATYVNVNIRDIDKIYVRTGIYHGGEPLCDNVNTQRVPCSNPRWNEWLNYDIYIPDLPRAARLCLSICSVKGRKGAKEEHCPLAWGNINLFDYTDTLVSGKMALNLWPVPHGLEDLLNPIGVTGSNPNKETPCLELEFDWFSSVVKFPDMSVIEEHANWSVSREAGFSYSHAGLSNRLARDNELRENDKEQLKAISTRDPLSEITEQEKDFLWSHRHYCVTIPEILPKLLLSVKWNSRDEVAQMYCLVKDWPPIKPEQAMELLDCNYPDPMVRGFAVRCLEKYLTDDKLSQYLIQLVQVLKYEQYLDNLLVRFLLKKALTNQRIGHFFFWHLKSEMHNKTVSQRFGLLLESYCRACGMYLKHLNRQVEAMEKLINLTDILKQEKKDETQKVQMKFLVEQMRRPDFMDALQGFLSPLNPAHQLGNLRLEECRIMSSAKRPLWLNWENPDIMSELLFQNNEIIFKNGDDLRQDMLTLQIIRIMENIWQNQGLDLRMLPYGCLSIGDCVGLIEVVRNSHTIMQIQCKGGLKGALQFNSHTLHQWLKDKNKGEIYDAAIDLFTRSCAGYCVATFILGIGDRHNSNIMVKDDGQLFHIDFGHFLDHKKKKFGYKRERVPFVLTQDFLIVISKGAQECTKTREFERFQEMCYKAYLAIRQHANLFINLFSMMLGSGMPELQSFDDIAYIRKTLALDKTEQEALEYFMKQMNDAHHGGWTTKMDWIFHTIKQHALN
T3 sequence (P27986 whole entry partner, species assumed): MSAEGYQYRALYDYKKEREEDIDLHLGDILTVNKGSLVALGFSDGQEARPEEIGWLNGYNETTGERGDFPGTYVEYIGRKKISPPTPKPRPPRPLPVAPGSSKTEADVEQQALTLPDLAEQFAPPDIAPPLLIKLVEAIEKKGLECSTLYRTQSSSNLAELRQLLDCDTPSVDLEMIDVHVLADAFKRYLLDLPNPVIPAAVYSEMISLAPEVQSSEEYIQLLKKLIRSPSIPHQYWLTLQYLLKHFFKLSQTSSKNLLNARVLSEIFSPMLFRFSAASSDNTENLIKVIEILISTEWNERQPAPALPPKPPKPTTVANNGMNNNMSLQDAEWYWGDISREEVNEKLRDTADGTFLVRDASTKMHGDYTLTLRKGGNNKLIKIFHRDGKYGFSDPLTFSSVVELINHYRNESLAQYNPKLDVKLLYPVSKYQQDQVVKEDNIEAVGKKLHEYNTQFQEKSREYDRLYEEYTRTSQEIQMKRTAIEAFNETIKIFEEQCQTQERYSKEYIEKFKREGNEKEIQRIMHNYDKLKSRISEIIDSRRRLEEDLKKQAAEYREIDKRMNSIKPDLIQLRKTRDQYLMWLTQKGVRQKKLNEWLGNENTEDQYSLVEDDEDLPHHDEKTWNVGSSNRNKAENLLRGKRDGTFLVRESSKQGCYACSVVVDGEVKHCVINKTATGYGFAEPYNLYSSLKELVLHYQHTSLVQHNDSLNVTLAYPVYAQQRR
Experimental: Compound inhibition for PI3Kα was determined in a homogeneous TR-FRET assay using a PI3Kα assay kit (Millipore, US, Catalog #33-016). The PI3 kinase catalyzes phosphorylation of […] (PIP2) to phosphatidylinositol 3,4,5-trisphosphate (PIP3) in the presence of ATP and Mg^2+. The PIP3 product is detected by displacement of biotin-PIP3 from an energy transfer complex consisting of Europium labeled anti-GST monoclonal antibody, a GST-tagged pleckstrin homology (PH) domain, biotinylated PIP3 and Streptavidin-Allophycocyanin (APC). Excitation of Europium in the complex results in an energy transfer to the APC and a fluorescence emission at 665 nm.
Compounds tested were dissolved in DMSO and directly distributed into 384-well plates at a volume of 0.5 μL. P110/P85a/PIP2 mixture (14.5 μL) was added to compound wells and incubated for 30 min at rt […]. P110/P85a was expressed in SF9 cells and purified in-house. 5 ng P110/P85a was used in the assay. The kinase reaction was started by the addition of ATP. The assay concentrations of both PIP2 and ATP were 40 μM. The reaction mixture was incubated for 30 min and was terminated by the addition of stop mix and detection mix. Fluorescence was measured at 615 and 665 nm upon excitation at 340 nm in a Victor V5 fluorometer (Perkin Elmer, US). The fluorescence emission ratio at 665 to 615 nm, proportional to the kinase activity, was plotted against the compound concentration to generate dose-response curves and IC50 values were determined.

T1 sequence (P15056 416-766 V600E limits assumed): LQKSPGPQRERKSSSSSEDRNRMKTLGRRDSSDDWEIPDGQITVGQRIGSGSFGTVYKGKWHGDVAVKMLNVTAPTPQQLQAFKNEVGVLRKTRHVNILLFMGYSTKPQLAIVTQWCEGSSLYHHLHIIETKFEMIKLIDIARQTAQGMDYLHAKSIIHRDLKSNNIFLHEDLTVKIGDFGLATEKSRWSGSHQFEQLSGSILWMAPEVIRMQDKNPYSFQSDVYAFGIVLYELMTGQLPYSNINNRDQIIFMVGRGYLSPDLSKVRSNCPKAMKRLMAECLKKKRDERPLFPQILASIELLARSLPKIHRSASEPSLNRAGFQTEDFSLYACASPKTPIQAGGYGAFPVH

Row | SMILES | IC50 (B-RAFV600E) [nM] | IC50 (mTOR kinase) [nM] | IC50 (pERK in A375 cells) [nM] | IC50 (A375 cells) [nM] | IC50 (pERK in RKO cells) [nM] | IC50 (RKO cells) [nM] | IC50 (pS6RP in RKO cells) [nM] | IC50 (PI3Kα) [nM]
1 | CNC(=O)Nc1ccc(-c2nc(N3CCOCC3)c3cc(-c4cccc(NS(=O)(=O)c5c(F)cccc5F)c4F)cc(OC)c3n2)cc1 [Example 1, 2,6-Difluoro-N-(2-fluoro-3-(8-methoxy-2-(4-(3-methylureido)phenyl)-4-morpholinoquinazolin-6-yl)phenyl)benzenesulfonamide] | 1 to 100 | 1 to 100 | 100 to 1000 | 100 to 1000 | 100 to 1000 | 1000 to 10000 |  | 
2 | COc1cc(-c2cccc(NS(=O)(=O)CCCF)c2F)cc2c(N3CCOCC3)nc(-c3cnc4[nH]ccc4c3)nc12 [Example 40, 3-fluoro-N-(2-fluoro-3-(8-methoxy-4-morpholino-2-(1H-pyrrolo[2,3-b]pyridin-5-yl)quinazolin-6-yl)phenyl)propane-1-sulfonamide] | 1 to 100 | 1 to 100 | 1 to 100 | 100 to 1000 |  |  | 100 to 1000 | 
3 | CC(C)Oc1cc(-c2cccc(NS(=O)(=O)CCCF)c2F)cc2c(N3CCOC[C@H]3C)nc(-c3cnc(N)nc3)nc12 [Example 64, (R)-N-(3-(2-(2-aminopyrimidin-5-yl)-8-isopropoxy-4-(3-methylmorpholino)quinazolin-6-yl)-2-fluorophenyl)-3-fluoropropane-1-sulfonamide] | 1 to 100 | 100 to 1000 | 1 to 100 | 1 to 100 |  |  | 100 to 1000 | 
4 | CCOc1cc(-c2cccc(NS(=O)(=O)CCCF)c2F)cc2c(N3CCOC[C@@H]3C)nc(-c3ccc(N)nc3)nc12 [Example 65, (S)-N-(3-(2-(6-aminopyridin-3-yl)-8-ethoxy-4-(3-methylmorpholino)quinazolin-6-yl)-2-fluorophenyl)-3-fluoropropane-1-sulfonamide] | 1 to 100 | 1 to 100 | 1 to 100 | 100 to 1000 |  | 100 to 1000 | 100 to 1000 | 
5 | COCCOc1cc(-c2cccc(NS(=O)(=O)CCCF)c2F)cc2c(N3CCOCC3)nc(-c3ccc(N)nc3)nc12 [Example 67, N-(3-(2-(6-aminopyridin-3-yl)-8-(2-methoxyethoxy)-4-morpholinoquinazolin-6-yl)-2-fluorophenyl)-3-fluoropropane-1-sulfonamide] | 1 to 100 | 1 to 100 | 100 to 1000 |  |  | 1 to 100 | 100 to 1000 | 
6 | COCCOc1cc(-c2cccc(NS(=O)(=O)CCCF)c2F)cc2c(N3CCOCC3)nc(-c3cnc(N)nc3)nc12 [Example 68, N-(3-(2-(2-aminopyrimidin-5-yl)-8-(2-methoxyethoxy)-4-morpholinoquinazolin-6-yl)-2-fluorophenyl)-3-fluoropropane-1-sulfonamide] | 1 to 100 | 1 to 100 | 1 to 100 |  |  | 100 to 1000 | 100 to 1000 | 
7 | Nc1cc(C(F)(F)F)c(-c2nc(N3CCOCC3)c3nc(-c4cccc(NS(=O)(=O)c5cc(F)ccc5F)c4F)ccc3n2)cn1 [Example 104, N-(3-(2-(6-amino-4-(trifluoromethyl)pyridin-3-yl)-4-morpholinopyrido[3,2-d]pyrimidin-6-yl)-2-fluorophenyl)-2,5-difluorobenzenesulfonamide] | 1 to 100 |  | 1 to 100 | 1 to 100 | 100 to 1000 |  |  | 1 to 100
8 | CNc1ncc(-c2nc(N3CCOC[C@H]3C)c3cc(-c4cccc(NS(=O)(=O)CCCF)c4F)cc(OC)c3n2)cn1 [Example 136, (R)-3-fluoro-N-(2-fluoro-3-(8-methoxy-2-(2-(methylamino)pyrimidin-5-yl)-4-(3-methylmorpholino)quinazolin-6-yl)phenyl)propane-1-sulfonamide] | 1 to 100 | 100 to 1000 |  |  | 1 to 100 | 100 to 1000 |  | 
9 | CCOc1cc(-c2cccc(NS(=O)(=O)CCCF)c2F)cc2c(N3CCOC[C@H]3C)nc(-c3cnc(N)nc3)nc12 [Example 137, (R)-N-(3-(2-(2-aminopyrimidin-5-yl)-8-ethoxy-4-(3-methylmorpholino)quinazolin-6-yl)-2-fluorophenyl)-3-fluoropropane-1-sulfonamide] | 1 to 100 | 100 to 1000 | 1 to 100 | 100 to 1000 | 1 to 100 | 1 to 100 |  | 
10 | C[C@@H]1COCCN1c1nc(-c2cnc(N)cc2F)nc2ccc(-c3cccc(NS(=O)(=O)CCCF)c3F)nc12 [Example 140, (R)-N-(3-(2-(6-amino-4-fluoropyridin-3-yl)-4-(3-methylmorpholino)pyrido[3,2-d]pyrimidin-6-yl)-2-fluorophenyl)-3-fluoropropane-1-sulfonamide] | 1 to 100 | 100 to 1000 | 100 to 1000 | 100 to 1000 | 1 to 100 | 100 to 1000 |  | 

Source: patent US9499495B2, “Quinazolines and azaquinazolines as dual inhibitors of RAS/RAF/MEK/ERK and PI3K/AKT/PTEN/mTOR pathways” (Asana Biosciences, LLC, priority 2013, dated 2016)
